Counter-ions that a name gives are not always drawn. Like-named read-outs stand apart in the source and are kept apart here.
Assays:
NK2 receptors [1] = molecular target: T1, NK2 receptors (Rattus norvegicus, UniProt P16610); experiment: Increase in hippocampal acetylcholine release caused by NK2 agonist applied in the septum of rats; assay type: in vivo; details: 0.1-0.3 mg/kg by the intraperitoneal route
T1 construct: from tissue; host or cells: rat brain (septum/hippocampus; prefrontal cortex), living animal
T1 sequence (P16610 1-390): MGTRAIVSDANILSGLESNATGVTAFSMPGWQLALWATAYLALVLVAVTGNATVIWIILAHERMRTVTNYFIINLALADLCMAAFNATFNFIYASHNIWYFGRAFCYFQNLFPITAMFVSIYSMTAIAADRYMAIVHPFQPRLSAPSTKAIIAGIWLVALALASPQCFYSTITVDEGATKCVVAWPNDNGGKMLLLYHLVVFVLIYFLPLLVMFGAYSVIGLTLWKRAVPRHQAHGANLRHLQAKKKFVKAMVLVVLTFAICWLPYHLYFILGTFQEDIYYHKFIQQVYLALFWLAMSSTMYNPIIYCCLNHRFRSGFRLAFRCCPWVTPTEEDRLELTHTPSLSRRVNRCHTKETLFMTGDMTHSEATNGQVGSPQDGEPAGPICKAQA
Text: (§1) In rats, the application of an agonist of the NK2 receptors in the septum causes an increase in the release of acetylcholine in the hippocampus (test carried out according to R. Steinberg et al., Eur. J. Neurosci., 1998, 10, 2337-2345). Likewise in guinea pigs, the local application of an agonist of the NK3 receptors in the septum causes an increase in the release of acetylcholine in the hippocampus (test carried out according to N. Marco et al., Neuropeptides, 1998, 32, 481-488).

NK2 receptor = experiment: Rotating behaviour induced by intrastriatal [Nle10]NKA(4-10) in gerbils; assay type: in vivo, gerbil; details: [Nle10]NKA(4-10) intrastriatal
Protocol: In gerbils, a rotating behaviour is induced by intrastriatal administration of a specific agonist of the NK2 receptor, [Nle^10]NKA(4-10); it was observed that a unilateral application of [Nle^10]NKA(4-10) into the gerbil striatum leads to strong contralateral rotations which are inhibited by the compounds according to the invention administered either by the intraperitoneal route, or by the oral route. This test was carried out according to M. Poncelet et al., Neurosci, Lett., 1993, 149, 40-42. In this test, the compounds according to the invention are active at doses ranging from 0.1 mg to 30 mg per kg.

[2] = molecular target: T2, cloned human NK2 receptors (Homo sapiens, UniProt P21452); experiment: Binding of [125I]His-NKA to cloned human NK2 receptors expressed by CHO cells; details: read-out: inhibition constant Ki, binding of [125I]His-NKA to cloned human NK2 receptors
T2 construct: expressed in transfected cells; host or cells: CHO cells
T2 sequence (P21452 1-398): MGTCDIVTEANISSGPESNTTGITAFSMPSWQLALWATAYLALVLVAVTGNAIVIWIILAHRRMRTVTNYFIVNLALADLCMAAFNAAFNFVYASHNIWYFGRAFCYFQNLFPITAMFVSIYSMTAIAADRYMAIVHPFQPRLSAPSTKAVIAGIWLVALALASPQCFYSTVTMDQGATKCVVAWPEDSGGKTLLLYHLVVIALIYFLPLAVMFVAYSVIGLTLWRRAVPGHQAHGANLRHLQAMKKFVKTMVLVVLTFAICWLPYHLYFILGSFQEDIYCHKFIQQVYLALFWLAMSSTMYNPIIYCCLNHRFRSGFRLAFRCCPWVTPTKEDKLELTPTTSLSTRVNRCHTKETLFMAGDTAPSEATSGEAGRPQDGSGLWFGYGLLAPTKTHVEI
Protocol: The affinity of the compounds for tachykinin receptors was evaluated in vitro by several biochemical tests using radioligands: 2) The binding of [^125I]|His-NKA to the cloned human NK2 receptors expressed by CHO cells (Y. Takeda et al., J. Neurochem., 1992, 59, 740-745). The tests were carried out according to X. Emonds-Alt et al. (Eur. J. Pharmacol., 1993, 250, 403-413; Life Sci., 1995, 56, PL 27-32). […] The inhibition constant Ki is less than or equal to 5×10^−10M.

NK3 receptor = experiment: Rotating behaviour induced by intrastriatal senktide in gerbils; assay type: in vivo, gerbil
Protocol: This test was carried out according to X. Emonds-Alt et al., Life Sci., 1995, 56, PL27-PL32.

[3] = molecular target: T3, cloned human NK3 receptors (Homo sapiens, UniProt P29371); experiment: Binding of [125I]His[MePhe7]NKB to cloned human NK3 receptors expressed by CHO cells; details: read-out: inhibition constant Ki, binding of [125I]His[MePhe7]NKB to cloned human NK3 receptors
T3 construct: expressed in transfected cells; host or cells: CHO cells
T3 sequence (P29371 1-465): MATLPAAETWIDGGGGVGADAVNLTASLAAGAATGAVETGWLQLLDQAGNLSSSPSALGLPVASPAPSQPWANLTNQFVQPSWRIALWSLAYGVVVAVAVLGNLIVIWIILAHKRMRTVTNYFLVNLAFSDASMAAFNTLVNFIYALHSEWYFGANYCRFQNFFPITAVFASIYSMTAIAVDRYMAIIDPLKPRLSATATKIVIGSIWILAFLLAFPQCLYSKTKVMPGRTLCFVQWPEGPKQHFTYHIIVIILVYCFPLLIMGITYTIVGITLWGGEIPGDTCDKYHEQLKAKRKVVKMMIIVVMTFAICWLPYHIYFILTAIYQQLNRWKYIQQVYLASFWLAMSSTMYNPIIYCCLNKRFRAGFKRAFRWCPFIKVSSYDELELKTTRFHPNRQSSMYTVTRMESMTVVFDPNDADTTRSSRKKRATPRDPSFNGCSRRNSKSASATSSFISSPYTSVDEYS
Protocol: The affinity of the compounds for tachykinin receptors was evaluated in vitro by several biochemical tests using radioligands: 3) The binding of [^125I]His[[…]]NKB to the cloned human NK3 receptors expressed by CHO cells (Buell et al., FEBS Letters, 1992, 299, 90-95). The tests were carried out according to X. Emonds-Alt et al. (Eur. J. Pharmacol., 1993, 250, 403-413; Life Sci., 1995, 56, PL 27-32).

NK2 receptors [4] = molecular target: T1, NK2 receptors; experiment: Constraint stress-induced increase in tissue level of DOPAC in prefrontal cortex of rats; assay type: in vivo; details: 1 mg/kg by the intraperitoneal route
Text: In rats, constraint stress causes an increase in the tissue level of DOPAC (3,4-dihydroxyphenyl acetic acid) in the prefrontal cortex (test carried out according to B. A. Morrow et al., Eur. J. Pharmacol., 1993, 238, 255-262).

NK3 receptors [5] = molecular target: T4, NK3 receptors (Cavia porcellus, UniProt P30098); experiment: Haloperidol-induced increase in number of spontaneously active dopaminergic neurons in A10 region of guinea pigs; assay type: in vivo, guinea pig; details: haloperidol 1 mg/kg i.p., compound 0.1-1 mg/kg by the intraperitoneal route
T4 construct: from tissue; host or cells: guinea pig brain (septum/hippocampus; A10/VTA), living animal
T4 sequence (P30098 1-440): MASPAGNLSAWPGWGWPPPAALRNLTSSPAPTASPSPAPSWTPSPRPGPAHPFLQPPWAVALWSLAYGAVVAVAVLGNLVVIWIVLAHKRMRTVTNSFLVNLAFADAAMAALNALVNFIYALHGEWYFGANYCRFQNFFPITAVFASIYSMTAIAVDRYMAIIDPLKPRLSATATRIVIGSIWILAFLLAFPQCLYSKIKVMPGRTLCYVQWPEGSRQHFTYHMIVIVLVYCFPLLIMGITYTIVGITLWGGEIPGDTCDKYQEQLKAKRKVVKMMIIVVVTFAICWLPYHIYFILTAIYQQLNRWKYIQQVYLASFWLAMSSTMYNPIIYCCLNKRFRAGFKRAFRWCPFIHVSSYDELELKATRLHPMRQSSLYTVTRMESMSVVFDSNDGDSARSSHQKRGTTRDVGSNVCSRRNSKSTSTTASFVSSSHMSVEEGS
Text: This increase is mediated by the activation of the NK3 receptors by endogenous neurokinin B (C. Gueudet et al., Synapse, 1999, 33, 71-79).

NK3 receptors [6] = molecular target: T4, NK3 receptors; experiment: Increase in hippocampal acetylcholine release caused by NK3 agonist applied in the septum of guinea pigs; assay type: in vivo, guinea pig; details: 0.3-1 mg/kg by the intraperitoneal route
Text: as §1

NK2 receptors [7] = molecular target: T1, NK2 receptors; details: rats, literature reference; cited from earlier work

Compound	effect on increase in release of acetylcholine in the hippocampus caused by an NK2 agonist (NK2 receptors [1])	effective dose 50 (ED50), inhibition of contralateral rotations (NK2 receptor; intraperitoneal route) [mg per kg]	effective dose 50 (ED50), inhibition of contralateral rotations (NK2 receptor; oral route) [mg per kg]	Ki [2] [nM]	ED50, inhibition of contralateral rotations (NK3 receptor; intraperitoneal route) [mg per kg]	ED50, inhibition of contralateral rotations (NK3 receptor; oral route) [mg per kg]	Ki [3] [nM]	effect on constraint stress-induced increase in DOPAC tissue level in prefrontal cortex (NK2 receptors [4])	effect on haloperidol-induced increase in number of spontaneously active dopaminergic neurons (A10 region) (NK3 receptors [5])	effect on increase in release of acetylcholine in the hippocampus caused by an NK3 agonist (NK3 receptors [6])	effect on constraint stress-induced increase in DOPAC tissue level in prefrontal cortex (NK2 receptors [7])
CN(C)C(=O)C1(N2CCCCC2)CCN(CCC2(c3ccc(Cl)c(Cl)c3)CN(C(=O)c3ccccc3)CCO2)CC1 (single isomer, unassigned) [Example 1, N,N-Dimethyl-1-[2-[4-benzoyl-2-(3,4-dichloro-phenyl)morpholin-2-yl]ethyl]-4-(piperidin-1-yl)-piperidine-4-carboxamide dihydrochloride, dextrorotatory isomer]	blocks	2.9	6.5	0.04	2.8	4.3	0.04	completely blocks	blocks	blocks	–
CC(=O)NC1(c2ccccc2)CCN(CC[C@H](CN(C)C(=O)c2ccccc2)c2ccc(Cl)c(Cl)c2)CC1 [saredutant]	–	–	–	–	–	–	–	–	–	–	blocked
NC(=O)C1(N2CCCCC2)CCN(CCC2(c3ccc(Cl)c(Cl)c3)CN(C(=O)c3ccccc3)CCO2)CC1 (stereo not drawn) [compound α, 1-[2-[4-benzoyl-2-(3,4-dichlorophenyl)morpholin-2-yl]ethyl]-4-(piperidin-1-yl)piperidine-4-carboxamide, reference compound]	–	–	–	0.04	–	–	2	–	–	–	–
